Our source for the IC50 values is patent US20170334899A1, “AMINO-SUBSTITUTED ISOTHIAZOLES” (Bayer Pharma Aktiengesellschaft, priority 2014, published 2017).

Bounds are passed on as bounds.

Experiment [1] concerns human cervical tumor cell line HeLa (ATCC CCL-2). The experiment in a line: SAC-Formation - Paclitaxel-Induced Assay. Format: cell-based. The following applies: Homo sapiens, HeLa, 24 h, HeLa cells, paclitaxel 0.05 μM, test range 0.005 μM-20 μM, read-out: IC50 [mol/l] SAC-Formation - Paclitaxel-Induced Assay. Summed up: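 HeLa cells incubated overnight at 37° C, then given paclitaxel (0.05 μM final) plus test compound (0.005–20 μM, 0.5% DMSO) together for 24 h at 37° C. Fixed cells stained for phospho-histone H3 Ser10 (mitotic cells) and Hoechst 33342 (cell count); imaging-derived mitotic index fitted by four-parameter Hill equation.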

The target in the next experiment is T1, CDK2/CycE (Homo sapiens, UniProt P24941).
T1 construct: GST; purchased ProQinase GmbH (Freiburg, Germany); host or cells: insect cells (Sf9)
In words: CDK2/CycE kinase assay (TR-FRET). Format: biochemical. The following applies: avg, read-out: CDK2 avg (IC50 [mol/l]). Summed up:
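GST-tagged human CDK2 and CycE from Sf9 cells, preincubated 15 min with compound, then 25 min at 22° C. with 10 μM ATP and 0.75 μM biotinylated Rb-derived peptide (final). Phospho-substrate read by TR-FRET (anti-pRB pSer807/pSer811, Eu anti-mouse IgG, streptavidin-XL665), 665/620 nm ratio, normalised to no-inhibitor and no-enzyme controls.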
In general terms: Time-resolved FRET reads energy transfer from a long-lived donor to a nearby acceptor.

Turning to `COCCOc1ccc(NC(=O)c2c(C)nsc2Nc2nc3c(C(F)(F)F)cccc3s2)cc1F` [Example 1, N-[3-Fluoro-4-(2-methoxyethoxy)phenyl]-3-methyl-5-{[4-(trifluoromethyl)-1,3-benzothiazol-2-yl]amino}-1,2-thiazole-4-carboxamide], the figures for the IC50 (in experiment [1]; at CDK2/CycE) were 0.094 µM and at least 20 µM, respectively.

Consider `Cc1nsc(Nc2nc3c(C(F)(F)F)cccc3s2)c1C(=O)Nc1ccc(OCCO)nc1` [Example 2, N-[6-(2-Hydroxyethoxy)pyridin-3-yl]-3-methyl-5-{[4-(trifluoromethyl)-1,3-benzo-thiazol-2-yl]amino}-1,2-thiazole-4-carboxamide], for which the IC50 in experiment [1] is 0.46 µM; at CDK2/CycE, at least 20 µM. `COCCOc1ccc(NC(=O)c2c(C)nsc2Nc2nc3c(C(F)(F)F)cccc3s2)cn1` [Example 3, N-[6-(2-Methoxyethoxy)pyridin-3-yl]-3-methyl-5-{[4-(trifluoromethyl)-1,3-benzo-thiazol-2-yl]amino}-1,2-thiazole-4-carboxamide]: the IC50 in experiment [1] is 0.13 µM.

With `Cc1nsc(Nc2nc3c(C(F)(F)F)cccc3s2)c1C(=O)Nc1ccc(OCCO)c(F)c1` [Example 4, N-[3-Fluoro-4-(2-hydroxyethoxy)phenyl]-3-methyl-5-{[4-(trifluoromethyl)-1,3-benzothiazol-2-yl]amino}-1,2-thiazole-4-carboxamide], the IC50 in experiment [1] was 0.98 µM; on CDK2/CycE, at least 20 µM.

`Cc1nsc(Nc2cnc(C(F)(F)F)cn2)c1C(=O)Nc1ccc(OC2CCN(C(=O)OC(C)(C)C)CC2)nc1` [Example 5, tert-Butyl 4-[(5-{[(3-methyl-5-{[5-(trifluoromethyl)pyrazin-2-yl]amino}-1,2-thiazol-4-yl)carbonyl]amino}pyridin-2-yl)oxy]piperidine-1-carboxylate]: the IC50 in experiment [1] was 0.11 µM; on CDK2/CycE, at least 20 µM. On to `Cc1nsc(Nc2cc(C#N)ccn2)c1C(=O)Nc1ccc(OC2CCCNC2)nc1` (centres unmarked) [Example 35, 5-[(4-Cyanopyridin-2-yl)amino]-3-methyl-N-[6-(piperidin-3-yloxy)pyridin-3-yl]-1,2-thiazole-4-carboxamide], for which the figures for the IC50 (in experiment [1]; at CDK2/CycE) were 20 µM and at least 20 µM, respectively.

Turning to `Cc1nsc(Nc2ccc(C#N)cn2)c1C(=O)Nc1ccc(OC2CCCN(C(=O)OC(C)(C)C)C2)nc1` (centres unmarked) [Example 36, tert-Butyl 3-({5-[({5-[(5-cyanopyridin-2-yl)amino]-3-methyl-1,2-thiazol-4-yl}-carbonyl)amino]pyridin-2-yl}oxy)piperidine-1-carboxylate], the IC50 is 0.59 µM in experiment [1] and at least 20 µM on CDK2/CycE. In the case of `Cc1nsc(Nc2ccc(C#N)cn2)c1C(=O)Nc1ccc(OC2CCCNC2)nc1` (centres unmarked) [Example 37, 5-[(5-Cyanopyridin-2-yl)amino]-3-methyl-N-[6-(piperidin-3-yloxy)pyridin-3-yl]-1,2-thiazole-4-carboxamide], the IC50 is 5.2 µM in experiment [1] and at least 20 µM at CDK2/CycE. In the case of `Cc1nsc(Nc2ccc(C#N)cn2)c1C(=O)Nc1ccc(OC2CCCN(CCF)C2)nc1` (centres unmarked) [Example 38, 5-[(5-Cyanopyridin-2-yl)amino]-N-(6-{[1-(2-fluoroethyl)piperidin-3-yl]oxy}pyridin-3-yl)-3-methyl-1,2-thiazole-4-carboxamide], the IC50 was 13 µM in experiment [1] and at least 20 µM on CDK2/CycE. For `Cc1nsc(Nc2ccc(C#N)cn2)c1C(=O)Nc1ccc(OC2CCCN(CC(F)F)C2)nc1` (centres unmarked) [Example 39, 5-[(5-Cyanopyridin-2-yl)amino]-N-(6-{[1-(2,2-difluoroethyl)piperidin-3-yl]oxy}-pyridin-3-yl)-3-methyl-1,2-thiazole-4-carboxamide], in that order: 0.024 µM and at least 20 µM. Turning to `Cc1nsc(Nc2ccc(C#N)cn2)c1C(=O)Nc1ccc(OC2CCCN(CC(F)(F)F)C2)nc1` (centres unmarked) [Example 40, 5-[(5-Cyanopyridin-2-yl)amino]-3-methyl-N-(6-{[1-(2,2,2-trifluoroethyl)piperidin-3-yl]oxy}pyridin-3-yl)-1,2-thiazole-4-carboxamide], the IC50 in experiment [1] was 0.39 µM; at CDK2/CycE it was at least 20 µM.

Regarding `Cc1nsc(Nc2cnccn2)c1C(=O)Nc1ccc(OC2CCCN(C(=O)OC(C)(C)C)C2)nc1` (centres unmarked) [Example 41, tert-Butyl 3-{[5-({[3-methyl-5-(pyrazin-2-ylamino)-1,2-thiazol-4-yl]carbonyl}amino)-pyridin-2-yl]oxy}piperidine-1-carboxylate], the IC50 is 1.8 µM in experiment [1] and at least 20 µM on CDK2/CycE.

For `Cc1nsc(Nc2cnc3ccccc3n2)c1C(=O)Nc1ccc(OCCCNC(=O)OC(C)(C)C)nc1` [Example 42, tert-Butyl (3-{[5-({[3-methyl-5-(quinoxalin-2-ylamino)-1,2-thiazol-4-yl]carbonyl}-amino)pyridin-2-yl]oxy}propyl)carbamate], the IC50 is 1.7 µM in experiment [1] and at least 20 µM on CDK2/CycE. As to `Cc1nsc(Nc2cc(C#N)ccn2)c1C(=O)Nc1ccc(OCCCNC(=O)OC(C)(C)C)nc1` [Example 43, tert-Butyl [3-({5-[({5-[(4-cyanopyridin-2-yl)amino]-3-methyl-1,2-thiazol-4-yl}-carbonyl)amino]pyridin-2-yl}oxy)propyl]carbamate], the IC50 in experiment [1] is 0.3 µM; on CDK2/CycE it was at least 20 µM.

Turning to `Cc1nsc(Nc2cc(C#N)ccn2)c1C(=O)Nc1ccc(OCCCN)nc1` [Example 44, N-[6-(3-Aminopropoxy)pyridin-3-yl]-5-[(4-cyanopyridin-2-yl)amino]-3-methyl-1,2-thiazole-4-carboxamide], the IC50 in experiment [1] is 20 µM; on CDK2/CycE, at least 20 µM. For `Cc1nsc(Nc2cc(C#N)ccn2)c1C(=O)Nc1ccc(OCCCNCC(F)F)nc1` [Example 45, 5-[(4-Cyanopyridin-2-yl)amino]-N-(6-{3-[(2,2-difluoroethyl)amino]propoxy}pyridin-3-yl)-3-methyl-1,2-thiazole-4-carboxamide], in that order: 20 µM and at least 20 µM. For `Cc1nsc(Nc2ccc(C#N)cn2)c1C(=O)Nc1ccc(OCCCNC(=O)OC(C)(C)C)nc1` [Example 46, tert-Butyl [3-({5-[({5-[(5-cyanopyridin-2-yl)amino]-3-methyl-1,2-thiazol-4-yl}-carbonyl)amino]pyridin-2-yl}oxy)propyl]carbamate], in that order: 0.25 µM and at least 20 µM. For `Cc1nsc(Nc2cnccn2)c1C(=O)Nc1ccc(OCCCNC(=O)OC(C)(C)C)nc1` [Example 47, tert-Butyl (3-{[5-({[3-methyl-5-(pyrazin-2-ylamino)-1,2-thiazol-4-yl]carbonyl}-amino)pyridin-2-yl]oxy}propyl)carbamate], in that order: 13 µM and at least 20 µM. In the case of `Cc1nsc(Nc2cnccn2)c1C(=O)Nc1ccc(OCCCN)nc1` [Example 48, N-[6-(3-Aminopropoxy)pyridin-3-yl]-3-methyl-5-(pyrazin-2-ylamino)-1,2-thiazole-4-carboxamide], the IC50 is 6.6 µM in experiment [1] and at least 20 µM at CDK2/CycE.

With `Cc1nsc(Nc2cnc3ccccc3n2)c1C(=O)Nc1cccc(C(=O)OC(C)(C)C)c1` [Example 49, tert-Butyl 3-({[3-methyl-5-(quinoxalin-2-ylamino)-1,2-thiazol-4-yl]carbonyl}amino)-benzoate], the values for the IC50 (in experiment [1]; at CDK2/CycE) were 0.41 µM and at least 20 µM, respectively. On the same counts, the results for `COC(=O)c1cccc(NC(=O)c2c(C)nsc2Nc2cnc3ccccc3n2)c1` [Example 50, Methyl 3-({[3-methyl-5-(quinoxalin-2-ylamino)-1,2-thiazol-4-yl]carbonyl}amino)-benzoate] are 0.62 µM and at least 20 µM.

For `Cc1nsc(Nc2cnc3ccccc3n2)c1C(=O)Nc1cccc(C(=O)O)c1` [Example 51, 3-({[3-Methyl-5-(quinoxalin-2-ylamino)-1,2-thiazol-4-yl]carbonyl}amino)benzoic acid], the figures for the IC50 (in experiment [1]; on CDK2/CycE) were 20 µM and at least 20 µM, respectively.

Regarding `Cc1nsc(Nc2cnc(C(F)(F)F)cn2)c1C(=O)Nc1ccc(F)c(OCC2CCN(CC(F)(F)F)C2)c1` (centres unmarked) [Example 318, N-(4-fluoro-3-{[1-(2,2,2-trifluoroethyl)pyrrolidin-3-yl]methoxy}phenyl)-3-methyl-5-{[5-(trifluoromethyl)pyrazin-2-yl]amino}-1,2-thiazole-4-carboxamide], at CDK2/CycE, the IC50 is over 20 µM. Consider `Cc1nsc(Nc2cnc(C(F)(F)F)cn2)c1C(=O)Nc1ccc(OCC2CCN(CC(F)F)CC2(F)F)nc1` (centres unmarked) [Example 401, N-(6-{[1-(2,2-difluoroethyl)-3,3-difluoropiperidin-4-yl]methoxy}pyridin-3-yl)-3-methyl-5-{[5-(trifluoromethyl)pyrazin-2-yl]amino}-1,2-thiazole-4-carboxamide], for which, on CDK2/CycE, the IC50 was over 20 µM. For the compound `CCN1CC[C@H](Oc2ccc(NC(=O)c3c(C)nsc3Nc3cnc(C(F)(F)F)cn3)cn2)[C@H](F)C1` [Example 424, N-(6-{[(3R,4S)-1-Ethyl-3-fluoropiperidin-4-yl]oxy}pyridin-3-yl)-3-methyl-5-{[5-(trifluoromethyl)pyrazin-2-yl]amino}-1,2-thiazole-4-carboxamide], the IC50 in experiment [1] was determined as 0.32 µM. Same read-out and setting: in the case of `Cc1nsc(Nc2ccc(C#N)cn2)c1C(=O)Nc1ccc(Nc2ccc(F)c(F)c2)nc1` [Example 433, 5-[(5-Cyanopyridin-2-yl)amino]-N-{6-[(3,4-difluorophenyl)amino]pyridin-3-yl}-3-methyl-1,2-thiazole-4-carboxamide] it was 1.3 µM.
